One series relates to ECa-109 cell line. Description: Cytotoxicity against human Eca-109 cells incubated for 48 hrs by CCK-8 assay. The format is functional, cell-based. The conditions noted are these: ECa-109, 48 h.
Series [1] has as its system Eca-109/VCR. Description: Cytotoxicity against human Eca-109/VCR cells assessed as reduction in cell viability at 5.0 uM incubated for 48 hrs by CCK-8 assay relative to control. The format is functional. A general note: Tetrazolium assays rely on reduction of a dye to a coloured formazan, in cell work by metabolically active cells.
The test system of series [2] is Eca-109/VCR. Kind of series: Induction of apoptosis in human Eca-109/VCR cells assessed as viable cells at 2.5 uM incubated for 60 hrs by Annexin V-FITC/PI staining based flow cytometric analysis (reference value: 97.4%). The format is functional. As to conditions: read-out: Activity. For orientation: A flow cytometer gives signals particle by particle.
Series [3] concerns Eca-109/VCR. Description: Induction of apoptosis in human Eca-109/VCR cells assessed as early apoptotic cells at 2.5 uM incubated for 60 hrs by Annexin V-FITC/PI staining based flow cytometric analysis (reference value: 1.66%). Format: functional.
The test system of series [4] is Eca-109/VCR. Kind of series: Induction of apoptosis in human Eca-109/VCR cells assessed as late apoptotic cells at 2.5 uM incubated for 60 hrs by Annexin V-FITC/PI staining based flow cytometric analysis (reference value: 0.70%). Format: functional.
Series [5] deals with Eca-109/VCR. Description: Induction of apoptosis in human Eca-109/VCR cells assessed as necrotic cells at 2.5 uM incubated for 60 hrs by Annexin V-FITC/PI staining based flow cytometric analysis (reference value: 0.22%). Format: functional.
For series [6], the system named is Eca-109/VCR. Kind of series: Induction of apoptosis in human Eca-109/VCR cells assessed as viable cells at 5 uM incubated for 60 hrs by Annexin V-FITC/PI staining based flow cytometric analysis (reference value: 97.4%). Format: functional. The conditions noted are these: read-out: Activity.
Series [7] deals with Eca-109/VCR. Description: Induction of apoptosis in human Eca-109/VCR cells assessed as early apoptotic cells at 5 uM incubated for 60 hrs by Annexin V-FITC/PI staining based flow cytometric analysis (reference value: 1.66%). The format is functional.
Series [8] has as its system Eca-109/VCR. Description: Induction of apoptosis in human Eca-109/VCR cells assessed as necrotic cells at 5 uM incubated for 60 hrs by Annexin V-FITC/PI staining based flow cytometric analysis (reference value: 0.22%). Format: functional.
The subject of series [9] is Eca-109/VCR. Description: Induction of apoptosis in human Eca-109/VCR cells assessed as viable cells at 2.5 uM incubated for 60 hrs in presence of vincristine by Annexin V-FITC/PI staining based flow cytometric analysis (reference value: 97.3%). Format: functional. The conditions noted are these: read-out: Activity.
Series [10] relates to Eca-109/VCR. Description: Induction of apoptosis in human Eca-109/VCR cells assessed as viable cells at 5 uM incubated for 60 hrs in presence of vincristine by Annexin V-FITC/PI staining based flow cytometric analysis (reference value: 97.3%). Format: functional. As to conditions: read-out: Activity.
Series [11] deals with Eca-109/VCR. Description: Induction of apoptosis in human Eca-109/VCR cells assessed as late apoptotic cells at 2.5 uM incubated for 60 hrs in presence of vincristine by Annexin V-FITC/PI staining based flow cytometric analysis (reference value: 0.56%). Format: functional.
Series [12] concerns Eca-109/VCR. Kind of series: Induction of apoptosis in human Eca-109/VCR cells assessed as late apoptotic cells at 5 uM incubated for 60 hrs in presence of vincristine by Annexin V-FITC/PI staining based flow cytometric analysis (reference value: 0.56%). Format: functional.
Series [13] concerns Eca-109/VCR. Kind of series: Induction of apoptosis in human Eca-109/VCR cells assessed as necrotic cells at 2.5 uM incubated for 60 hrs in presence of vincristine by Annexin V-FITC/PI staining based flow cytometric analysis (reference value: 0.10%). Format: functional.
Series [14] concerns Eca-109/VCR. Description: Induction of apoptosis in human Eca-109/VCR cells assessed as necrotic cells at 5 uM incubated for 60 hrs in presence of vincristine by Annexin V-FITC/PI staining based flow cytometric analysis (reference value: 0.10%). Format: functional.
The test system of series [15] is Eca-109/VCR. Description: Induction of apoptosis in human Eca-109/VCR cells assessed as late apoptotic cells at 5 uM incubated for 60 hrs by Annexin V-FITC/PI staining based flow cytometric analysis (reference value: 0.70%). The format is functional.
The subject of series [16] is Eca-109/VCR. Kind of series: Reversal of multi-drug resistance in human Eca-109/VCR cells assessed as decrease in cloning formation at 0.5 to 2 uM incubated for 8 days by crystal violet staining based analysis. The format is functional, cell-based. The conditions noted are these: dose 0.5-2 µM, time 8.0 day.
In series [17] the test system is Eca-109/VCR. Description: Cytotoxicity against human Eca-109/VCR cells assessed as reduction in cell viability incubated for 48 hrs by CCK-8 assay. The format is functional, cell-based.
Series [18] in a line: Reversal fold, ratio of vincristine IC50 to vincristine IC50 in presence of test compound for reversal of drug resistance in human Eca-109/VCR cells at 5 uM incubated for 48 hrs by CCK-8 assay. Format: functional.
Series [19] relates to Eca-109/VCR. Description: Reversal of multi-drug resistance in human Eca-109/VCR cells assessed as decrease in cloning formation at 0.5 to 2 uM incubated for 8 days in presence of vincristine by crystal violet staining based analysis. Format: functional, cell-based. As to conditions: dose 0.5-2 µM, time 8.0 day.
Series [20] relates to Eca-109/VCR. Description: Reversal of multi-drug resistance in human Eca-109/VCR cells assessed as decrease in cloning formation incubated for 8 days in presence of vincristine by crystal violet staining based analysis. Format: functional, cell-based. As to conditions: dose 0.5-2 µM, time 8.0 day.
Series [21] has as its system Eca-109/VCR. Kind of series: Effect on p-gp expression in human Eca-109/VCR cells at 5 to 10 uM incubated for 24 hrs by Western blotting analysis. Format: functional, cell-based. As to conditions: dose 5-10 µM. (A western blot detects proteins with antibodies after separation by electrophoresis.)
The nature of series [22]: Apparent clearance in male Sprague-Dawley rat at 10 mg/kg, po measured after 24 hrs by UPLC-MS/MS analysis. The conditions noted are these: in vivo, read-out: CL(app) (converted). Format: ADME, organism-based.
The nature of series [23]: Reversal fold, ratio of mitoxantrone IC50 to mitoxantrone IC50 in presence of test compound for reversal of drug resistance in human Eca-109/VCR cells at 5 uM incubated for 48 hrs by CCK-8 assay. The format is functional.
Series [24] can be described thus: Reversal fold, ratio of docetaxel IC50 to docetaxel IC50 in presence of test compound for reversal of drug resistance in human Eca-109/VCR cells at 5 uM incubated for 48 hrs by CCK-8 assay. The format is functional.
Series [25] in a line: Reversal fold, ratio of doxorubicin IC50 to doxorubicin IC50 in presence of test compound for reversal of drug resistance in human Eca-109/VCR cells at 5 uM incubated for 48 hrs by CCK-8 assay. Format: functional.
Series [26] can be described thus: Reversal fold, ratio of lapatinib IC50 to lapatinib IC50 in presence of test compound for reversal of drug resistance in human Eca-109/VCR cells at 5 uM incubated for 48 hrs by CCK-8 assay. The format is functional.
Series [27] in a line: Reversal fold, ratio of colchicine IC50 to colchicine IC50 in presence of test compound for reversal of drug resistance in human Eca-109/VCR cells at 5 uM incubated for 48 hrs by CCK-8 assay. The format is functional.

Results on 5 compounds are retold here after ChEMBL document CHEMBL6182888, “Design, synthesis, and biological activity study of 6,7-dimethoxy-1,2,3,4-tetrahydroisoquinoline derivatives against multidrug resistance in Eca109/VCR cells” (Eur J Med Chem, 2025).

As a reminder, the IC50 is the concentration needed to halve the response being measured.

Calls of active or inactive are those of the source. The rule behind the calls is not given here.

In the series with ECa-109 cell line, `COc1cccc2c1C(=O)c1c(O)c3c(c(O)c1C2=O)C[C@@](O)(C(=O)CO)C[C@@H]3O[C@H]1C[C@H](N)[C@H](O)[C@H](C)O1` [DOXORUBICIN] came in with an IC50 of 2070 nM.

Regarding `COc1cc2c(cc1OC)CN(CCc1ccc(NC(=O)c3cc(OC)c(OC)cc3NC(=O)c3cnc4ccccc4c3)cc1)CC2` [TARIQUIDAR], the “Cell viability (% of control)” value with Eca-109/VCR [1] is on record as 84.8%. Also, the viability at 2.5 µM with Eca-109/VCR [2] was determined as 96.1%; in the series on Eca-109/VCR [9], 63.2%. The Activity with Eca-109/VCR [3] came out at 1%; with Eca-109/VCR [4] it was 0.64%; in the series with Eca-109/VCR [5], 0.22%; with Eca-109/VCR [7], 3.18%; in the series on Eca-109/VCR [8] it was 0.21%; in the series with Eca-109/VCR [11], 7.6%. In addition, the Activity in the series on Eca-109/VCR [12] was determined as 7%; in the series with Eca-109/VCR [13], 0.47%; with Eca-109/VCR [14] it was 0.57%. Besides, the viability at 5 µM with Eca-109/VCR [6] was found to be 95.6%; in the series with Eca-109/VCR [10] it was 63.4%.

In the case of `COc1ccc(CCN(C)CCCC(C#N)(c2ccc(OC)c(OC)c2)C(C)C)cc1OC` (stereo unspecified) [VERAPAMIL], the “Cell viability (% of control)” value with Eca-109/VCR [1] came out at 98.9%. The Activity with Eca-109/VCR [3] is 1.19%; in the series on Eca-109/VCR [4], 0.55%; in the series on Eca-109/VCR [5], 0.2%; in the series with Eca-109/VCR [7], 1.12%; in the series on Eca-109/VCR [15], 0.72%; with Eca-109/VCR [8] it was 0.13%. Further, the Activity in the series with Eca-109/VCR [11] came out at 0.85%; in the series with Eca-109/VCR [12] it was 5.95%; in the series on Eca-109/VCR [13] it was 0.17%; with Eca-109/VCR [14], 0.34%. Besides, the viability at 5 µM in the series with Eca-109/VCR [6] stood at 96.2%; with Eca-109/VCR [10] it was 75.4%. For the same compound, in the series on Eca-109/VCR [9], the viability at 2.5 µM turned out to be 96%.

With `CC[C@]1(O)C[C@H]2CN(CCc3c([nH]c4ccccc34)[C@@](C(=O)OC)(c3cc4c(cc3OC)N(C=O)[C@H]3[C@@](O)(C(=O)OC)[C@H](OC(C)=O)[C@]5(CC)C=CCN6CC[C@]43[C@@H]65)C2)C1` [VINCRISTINE], in the series on Eca-109/VCR [16], the outcome was inactive. For the same compound, the IC50 in the series on Eca-109/VCR [17] is 4.15 µM.

With `COc1cc2c(cc1OC)C(Cc1ccc(OS(=O)(=O)c3ccccc3[N+](=O)[O-])c(OC)c1)N(C)CC2` (stereo unspecified), the “Cell viability (% of control)” value with Eca-109/VCR [1] is given as 99.1%. In addition, the “Ratio IC50” value was 467.7 in [18]; 10 in series [23]; 149.7 in series [24]; 29.4 in series [25]; 1 in series [26]; 98.2 in series [27]. Besides, the figures for the viability at 2.5 µM in the series on Eca-109/VCR [2] and in the series on Eca-109/VCR [9] were 96.9% and 75.4%, respectively. Besides, the Activity in the series with Eca-109/VCR [3] is 2.19%; in the series with Eca-109/VCR [19] it was “Active; Compound Showed Superior Reversal Activity Compared To Oy-101”; in the series on Eca-109/VCR [20] it was “Dose-dependent-effect”; in the series with Eca-109/VCR [4], 0.53%; in the series with Eca-109/VCR [5], 0.29%; in the series on Eca-109/VCR [7], 1.61%. The Activity was 1% with Eca-109/VCR [15]; 5.47% in the series on Eca-109/VCR [11]; 9.21% in the series on Eca-109/VCR [12]; 0.63% with Eca-109/VCR [13]; 0.7% with Eca-109/VCR [14]. Further, the outcome in the series with Eca-109/VCR [16] was inactive. Besides, the outcome in the series on Eca-109/VCR [21] was Active. Further, the figures for the viability at 5 µM in the series with Eca-109/VCR [6] and with Eca-109/VCR [10] were 97.1% and 94.5%, respectively. Moreover, the CL/F in [22] was 6550 mL/min/kg.
